Results taken from ChEMBL document CHEMBL1629479, “Old phenothiazine and dibenzothiadiazepine derivatives for tomorrow's neuroprotective therapies against neurodegenerative diseases” (Eur J Med Chem, 2010).
pIC50: −log10 of the molar value.

Legend:
SH-SY5Y [1] = assay: Neuroprotective activity against H2O2-induced oxidative stress in human SH-SY5Y cells assessed as LDH release at 100 uM after 24 hrs by UV-vis spectroscopy in presence of calcium channel blocker nimodipine; format: functional
SH-SY5Y [2] = assay: Neuroprotective activity against H2O2-induced oxidative stress in human SH-SY5Y cells assessed as LDH release at 30 uM after 24 hrs by UV-vis spectroscopy; format: functional
SH-SY5Y [3] = assay: Neuroprotective activity against H2O2-induced oxidative stress in human SH-SY5Y cells assessed as LDH release at 100 uM after 24 hrs by UV-vis spectroscopy; format: functional
SH-SY5Y [4] = assay: Neuroprotective activity against H2O2-induced oxidative stress in human SH-SY5Y cells assessed as LDH release at 3 uM after 24 hrs by UV-vis spectroscopy; format: functional
[5] = Permeability of the compound by PAMPA at pH 7.4; format: ADME; conditions: read-out: permeability
Acetylcholinesterase = biological target: T1, Acetylcholinesterase (Bos taurus, UniProt P23795)
T1 sequence (P23795 whole entry): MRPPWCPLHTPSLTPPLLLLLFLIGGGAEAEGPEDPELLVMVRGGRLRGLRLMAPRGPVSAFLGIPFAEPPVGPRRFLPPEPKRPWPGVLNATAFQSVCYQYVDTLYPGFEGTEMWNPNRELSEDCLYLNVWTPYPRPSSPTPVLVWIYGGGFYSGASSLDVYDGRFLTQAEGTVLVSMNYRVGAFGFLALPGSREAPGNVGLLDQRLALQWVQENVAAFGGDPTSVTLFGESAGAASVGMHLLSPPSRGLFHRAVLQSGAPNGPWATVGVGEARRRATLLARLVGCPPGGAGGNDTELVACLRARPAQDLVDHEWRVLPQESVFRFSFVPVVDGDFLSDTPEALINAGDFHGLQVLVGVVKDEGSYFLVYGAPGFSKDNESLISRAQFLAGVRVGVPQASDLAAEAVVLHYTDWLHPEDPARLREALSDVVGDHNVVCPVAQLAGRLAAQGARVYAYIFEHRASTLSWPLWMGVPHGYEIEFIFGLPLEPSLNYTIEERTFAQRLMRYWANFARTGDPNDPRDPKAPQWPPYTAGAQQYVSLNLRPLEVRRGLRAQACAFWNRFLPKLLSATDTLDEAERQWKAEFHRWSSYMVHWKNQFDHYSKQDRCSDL
Description: Inhibition of bovine erythrocyte AChE by Ellman's method

SH-SY5Y [6] = assay: Neuroprotective activity against H2O2-induced oxidative stress in human SH-SY5Y cells assessed as LDH release at 1 uM after 24 hrs by UV-vis spectroscopy; format: functional
SH-SY5Y [7] = assay: Neuroprotective activity against rotenone and oligomycin-induced mitochondrial oxidative stress in human SH-SY5Y cells assessed as LDH release at 10 uM after 24 hrs using DCFH-DA fluorescent dye; format: functional
SH-SY5Y [8] = assay: Neuroprotective activity against H2O2-induced oxidative stress in human SH-SY5Y cells assessed as LDH release at 60 uM after 24 hrs by UV-vis spectroscopy; format: functional
Cholinesterase = Cholinesterase (Equus caballus, UniProt P81908); assay: Inhibition of equine serum BuChE by Ellman's method
SH-SY5Y [9] = assay: Neuroprotective activity against rotenone and oligomycin-induced mitochondrial oxidative stress in human SH-SY5Y cells assessed as LDH release at 3 uM after 24 hrs using DCFH-DA fluorescent dye; format: functional
SH-SY5Y [10] = assay: Neuroprotective activity against rotenone and oligomycin-induced mitochondrial oxidative stress in human SH-SY5Y cells assessed as LDH release at 30 uM after 24 hrs using DCFH-DA fluorescent dye; format: functional
SH-SY5Y [11] = assay: Cytotoxicity against human SH-SY5Y cells assessed as LDH release at 100 uM after 24 hrs by UV-vis spectroscopy; format: cell-based
SH-SY5Y [12] = assay: Neuroprotective activity against H2O2-induced oxidative stress in human SH-SY5Y cells assessed as LDH release at 30 uM after 24 hrs by UV-vis spectroscopy in presence of calcium channel blocker nimodipine; format: functional

Chain of Cholinesterase (P81908 whole entry): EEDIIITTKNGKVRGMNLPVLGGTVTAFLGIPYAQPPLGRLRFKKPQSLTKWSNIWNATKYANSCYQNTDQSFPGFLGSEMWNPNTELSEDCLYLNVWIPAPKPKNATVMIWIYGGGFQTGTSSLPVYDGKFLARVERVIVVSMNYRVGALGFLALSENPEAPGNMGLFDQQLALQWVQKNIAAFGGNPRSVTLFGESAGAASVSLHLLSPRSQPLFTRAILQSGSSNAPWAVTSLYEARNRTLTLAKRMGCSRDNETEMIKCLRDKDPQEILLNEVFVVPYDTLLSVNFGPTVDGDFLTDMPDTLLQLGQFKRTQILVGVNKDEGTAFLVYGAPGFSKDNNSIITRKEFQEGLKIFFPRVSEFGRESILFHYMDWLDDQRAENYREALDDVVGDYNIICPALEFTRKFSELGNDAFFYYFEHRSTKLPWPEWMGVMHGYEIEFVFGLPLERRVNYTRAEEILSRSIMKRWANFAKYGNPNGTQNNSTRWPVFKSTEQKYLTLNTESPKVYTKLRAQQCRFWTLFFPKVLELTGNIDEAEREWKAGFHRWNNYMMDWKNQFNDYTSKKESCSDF

SMILES: CC(=O)n1c2ccccc2sc2cccc(Cl)c2n1C(C)=O
- Activity (SH-SY5Y [1]): 0%
- Activity (SH-SY5Y [2]): 11.4%
- Activity (SH-SY5Y [3]): 41%
- Activity (SH-SY5Y [4]): 6.4%
- Papp [5]: 7.7 ×10⁻⁶ cm/s
- pIC50 (Acetylcholinesterase): < 4.00
- Activity (SH-SY5Y [6]): 0%
- Activity (SH-SY5Y [7]): 43.4%
- Activity (SH-SY5Y [8]): 13.2%
- pIC50 (Cholinesterase): < 4.00
- Activity (SH-SY5Y [9]): 48.5%
- Activity (SH-SY5Y [10]): 38.9%
- Activity (SH-SY5Y [11]): Non-toxic

SMILES: CC(=O)NN1c2ccccc2Sc2ccc(Cl)cc21
- Activity (SH-SY5Y [2]): 0%
- Activity (SH-SY5Y [3]): 0%
- Activity (SH-SY5Y [4]): 0%
- pIC50 (Acetylcholinesterase): < 4.00
- Activity (SH-SY5Y [6]): 0%
- Activity (SH-SY5Y [8]): 0%
- pIC50 (Cholinesterase): < 4.00
- Activity (SH-SY5Y [11]): Non-toxic

SMILES: Cc1c(C)c2c(c(C)c1O)CCC(C)(C(=O)O)O2 (configuration not stated) [TROLOX]
- Activity (SH-SY5Y [1]): 60.3%
- Activity (SH-SY5Y [2]): 57.7%
- Activity (SH-SY5Y [3]): 64.2%
- Activity (SH-SY5Y [4]): 0%
- Activity (SH-SY5Y [6]): 0%
- Activity (SH-SY5Y [7]): 43.2%
- Activity (SH-SY5Y [8]): 55.7%
- Activity (SH-SY5Y [9]): 52.9%
- Activity (SH-SY5Y [10]): 39.3%

SMILES: CN1CCN(NCCN2c3ccccc3Sc3ccccc32)CC1.Cl.Cl
- Activity (SH-SY5Y [1]): 16.4%
- Activity (SH-SY5Y [2]): 22.1%
- Activity (SH-SY5Y [3]): 42.1%
- Activity (SH-SY5Y [4]): 8.3%
- Papp [5]: 9.1 ×10⁻⁶ cm/s
- pIC50 (Acetylcholinesterase): < 4.00
- Activity (SH-SY5Y [6]): 14.1%
- Activity (SH-SY5Y [7]): 22.5%
- Activity (SH-SY5Y [8]): 36.9%
- pIC50 (Cholinesterase): 4.30
- Activity (SH-SY5Y [9]): 19.4%
- Activity (SH-SY5Y [10]): 22.6%
- Activity (SH-SY5Y [11]): Non-toxic

SMILES: CN1CCN(CC(=O)NN2c3ccccc3Sc3cc(Cl)ccc32)CC1
- Activity (SH-SY5Y [2]): 37.9%
- Activity (SH-SY5Y [3]): 18.8%
- Activity (SH-SY5Y [4]): 17.1%
- pIC50 (Acetylcholinesterase): < 4.00
- Activity (SH-SY5Y [6]): 12.5%
- Activity (SH-SY5Y [8]): 18.4%
- pIC50 (Cholinesterase): 6.30
- Activity (SH-SY5Y [11]): Non-toxic

SMILES: NN1c2ccccc2Sc2ccccc21
- Activity (SH-SY5Y [2]): 0%
- Activity (SH-SY5Y [3]): 0%
- Activity (SH-SY5Y [4]): 6.7%
- pIC50 (Acetylcholinesterase): < 4.00
- Activity (SH-SY5Y [6]): 0%
- Activity (SH-SY5Y [8]): 0%
- pIC50 (Cholinesterase): < 4.00
- Activity (SH-SY5Y [11]): Non-toxic

SMILES: CN(C)CCC(=O)NN1c2ccccc2Sc2cc(Cl)ccc21
- Activity (SH-SY5Y [2]): 44.4%
- Activity (SH-SY5Y [3]): 20.1%
- Activity (SH-SY5Y [4]): 8.4%
- Papp [5]: 8.8 ×10⁻⁶ cm/s
- pIC50 (Acetylcholinesterase): < 4.00
- Activity (SH-SY5Y [12]): 6.5%
- Activity (SH-SY5Y [6]): 0%
- Activity (SH-SY5Y [7]): 18.9%
- Activity (SH-SY5Y [8]): 18.6%
- pIC50 (Cholinesterase): 6.15
- Activity (SH-SY5Y [9]): 21.4%
- Activity (SH-SY5Y [10]): 52.9%
- Activity (SH-SY5Y [11]): Non-toxic
